The results in this text go back to patent US11401271B2, “Fused heterocyclic compound, pyrazole-ring-containing fused heterocyclic compound, agricultural composition containing thereof, and method of using the composition” (SOUTH CHINA AGRICULTURAL UNIVERSITY, priority 2017, dated 2022).

Like-named read-outs stand apart in the source and are kept apart here.

Format in all cases: in vivo
Series [1] has as its system Plutella xylostella. The experiment in a line: whole plant or invertebrate. The note with it: Plutella xylostella, read-out: Plutella xylostella Mortality (%) 500 ppm. In short, it runs like this:
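Cabbage leaf discs dipped 5 s in compound at 500 ppm (0.05% Tween-80 aqueous), air-dried, fed to about 35 2nd-instar larvae at 28° C., triplicate. Dead larvae counted after 24 h; mortality (%) corrected against Tween-80 control.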

The subject of series [2] is Spodoptera exigua. The experiment in a line: whole plant or invertebrate. As to conditions: Spodoptera exigua, 24 h, read-out: Spodoptera exigua Mortality (%) 500 ppm. In short, it runs like this: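 Cabbage leaf discs dipped 5 s in 500 ppm compound (0.05% Tween-80 aqueous), air-dried, fed to about 35 2nd-instar larvae at 28° C, three replicates. Deaths counted at 24 h; mortality corrected against Tween-80 control.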

For series [3], the system named is Bombyx mori L. The experiment in a line: Toxicity test on 2nd-instar larvae of Bombyx mori L., leaf immersion feeding method. As to conditions: 1000 ppm, 24 hours. The procedure: (1) Toxicity Test on 2nd-Instar Larvae of Bombyx mori L.
Bombyx mori L. is an important economic insect sensitive to pesticides in an agricultural ecosystem, and is also one of the non-target organisms of environmental ecology listed in pesticide registration of China. The 2nd-instar larvae of Bombyx mori L. were used as test objects and tested by using a leaf immersion feeding method.
Operation process: Samples were weighed accurately, and respectively added with 200 μL of dimethyl sulfoxide to prepare 10 g/L mother liquor which was diluted into a concentration of 1000 ppm with an aqueous solution containing 0.05% of Tween-80 during the test. Young cotyledons of mulberries were collected, washed and air-dried, immersed in a liquid medicine, taken out after 5 seconds, naturally air-dryed, and then transferred into a clean vessel. About 35 2nd -instar larvae of Bombyx mori L. were put into the vessel and fed at a constant temperature of 25° C. Each concentration was repeated 3 times, and an aqueous solution containing 0.05% of Tween-80 was used as a control group. After being treated for 24 hours, a number of dead Bombyx mori L. was counted, and a mortality (%) was calculated according to a formula that mortality (%)=(number of live larvae in the control group −number of treated live larvae)/number of live larvae in the control group * 100%.

Series [4] concerns Apis cernan. Put plainly: Toxicity test on adult worker bees of Apis cernan, small beaker method. As to conditions: 500 ppm, 48 hours. The procedure:
(2) Toxicity Test on Adult Worker Bees of Apis cernan.
Adult worker bees of Apis cernan having the same size were selected for test. The worker bees were collected from beekeeping boxes in the daystart of the test day and tested by using a small beaker method.
Operation process: A small amount of absorbent cotton was put into a 5 mL small beaker, 5 mL of a test liquid medicine (a concentration of 500 ppm) was dropped into the absorbent cotton, and stirred gently to make the absorbent cotton completely wet but not leached obviously, then the small beaker was put into a 500 mL large beaker, then 15 worker bees were put into the large beaker, and finally the large beaker was sealed with gauze. After treatment, the large beaker was placed in a dark room of an artificial climate box. After taking the medicine for 48 hours, a number of live and dead worker bees were investigated.

Series [5] has as its system Aphis craccivora. Put plainly: whole plant or invertebrate. The note with it: Aphis craccivora, 24 h, read-out: Aphis craccivora Mortality (%) 500 ppm. The method in brief: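 Wingless adults feeding on bean sprouts were dipped with the sprouts for 5 s in 500 ppm compound in aqueous 0.05% Tween-80, air-dried, then held at 23° C. Dead aphids counted after 24 h, triplicate, with 0.05% Tween-80 as control. Mortality (%) = (control live − treated live)/control live × 100.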

Series [6] deals with Solenopsis invicta. The experiment in a line: whole plant or invertebrate. The note with it: Solenopsis invicta, water test tube poison-feeding. In short, it runs like this: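 Fire ants fed compound by water test-tube poison-feeding at 100 ppm in aqueous 0.05% Tween-80/5% honey (from 10 g/L DMSO stock), kept at 25 °C. Live and dead ants counted at 24 and 72 h; mortality (%) calculated relative to live ants in the untreated control.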

Setting [7] is: 24 h, read-out: Solenopsis invicta Mortality (%) 100 ppm 24 h, 100 ppm, 24 h.
[8] abbreviates: 72 h, read-out: Solenopsis invicta Mortality (%) 100 ppm 72 h, 100 ppm, 72 h.

Take `C=CC1(CCl)Nc2cc(C#N)nn2-c2c(Cl)cc(C(F)(F)F)cc21` (stereo not drawn) [Compound C1, 9-chloro-7-trifluoromethylphenyl-5-chloromethyl-5-vinyl-4,5-dihydropyrrole[1,5-α]quinazoline-2-cyano]: the mortality (usually the percentage killed) at 500 ppm in series [1] was 89%; in series [2] it was 100%; in series [5], 100%. Besides, the “Toxicity determination Bombyx mori L. Mortality (%)” value in series [3] was 7%. The “Toxicity determination Apis cernan Mortality (%)” value in series [4] came out at 7%. For the same molecule, the mortality at 100 ppm in series [6] (setting [7]) was determined as 20%; in series [6] (setting [8]), 100%.
For the molecule `C=CC1(CC(F)(F)F)Nc2cc(C#N)nn2-c2c(Cl)cc(C(F)(F)F)cc21` (stereo not shown) [Compound C2], the mortality at 500 ppm came out at 100% in series [1], 90% in series [2] and 100% in series [5]. Moreover, in series [3], the “Toxicity determination Bombyx mori L. Mortality (%)” value is reported as 5%. In addition, in series [4], the “Toxicity determination Apis cernan Mortality (%)” value was determined as 10%. Further, the figures for the mortality at 100 ppm in series [6] (setting [7]) and in series [6] (setting [8]) were 26% and 93%, respectively.
`C=CC1(C(F)(F)F)Nc2cc(C#N)nn2-c2c(Cl)cc(C(F)(F)F)cc21` (stereo not shown) [Compound C3]: the mortality at 500 ppm in series [1], in series [2] and in series [5] was 100% in each case. For the same molecule, the “Toxicity determination Bombyx mori L. Mortality (%)” value in series [3] is on record as 12%. For the same molecule, in series [4], the “Toxicity determination Apis cernan Mortality (%)” value stood at 10%. The mortality at 100 ppm amounted to 24% in series [6] (setting [7]) and 100% in series [6] (setting [8]).
As to `C=CC1Nc2cc(C#N)nn2-c2c(Cl)cc(C(F)(F)F)cc21` (stereo not shown) [Compound C4], the results for the mortality at 500 ppm in series [1], in series [2] and in series [5] were 86%, 76% and 100%, respectively. Also, the “Toxicity determination Bombyx mori L. Mortality (%)” value in series [3] is on record as 3%. In addition, in series [4], the “Toxicity determination Apis cernan Mortality (%)” value worked out at 0%. Besides, the mortality at 100 ppm in series [6] (setting [7]) came to 20%; in series [6] (setting [8]) it was 87%.
Regarding `C=CC1(CCl)Nc2c(-c3ccccc3C(F)(F)F)c(C#N)nn2-c2c(Cl)cc(C(F)(F)F)cc21` (stereo not shown) [Compound C9], the mortality at 500 ppm in series [1], in series [2] and in series [5] was 100% throughout. Also, the “Toxicity determination Bombyx mori L. Mortality (%)” value in series [3] is reported as 8%. Moreover, the “Toxicity determination Apis cernan Mortality (%)” value in series [4] is listed as 9%. Also, the mortality at 100 ppm was 39% in series [6] (setting [7]) and 100% in series [6] (setting [8]).
Consider `C=CC1(CCl)Nc2c(-c3cc(C)oc3C)c(C#N)nn2-c2c(Cl)cc(C(F)(F)F)cc21` (stereo not shown) [Compound C10], for which the mortality at 500 ppm in series [1] amounted to 100%; in series [2], 85%; in series [5], 100%. For the same molecule, in series [3], the “Toxicity determination Bombyx mori L. Mortality (%)” value came out at 10%. Besides, the “Toxicity determination Apis cernan Mortality (%)” value in series [4] is given as 9%. Moreover, the mortality at 100 ppm in series [6] (setting [7]) was found to be 27%; in series [6] (setting [8]), 100%.
In the case of `C=CC1(CCl)Nc2c([S+]([O-])C(F)(F)F)c(C#N)nn2-c2c(Cl)cc(C(F)(F)F)cc21` (stereo not shown) [Compound C13], the mortality at 500 ppm in series [1], in series [2] and in series [5] was 100% each time. Besides, in series [3], the “Toxicity determination Bombyx mori L. Mortality (%)” value is listed as 12%. Moreover, the “Toxicity determination Apis cernan Mortality (%)” value in series [4] worked out at 10%. The mortality at 100 ppm was found to be 32% in series [6] (setting [7]) and 100% in series [6] (setting [8]).
On to `C=CC1(CC(F)(F)F)Nc2c([S+]([O-])C(F)(F)F)c(C#N)nn2-c2c(Cl)cc(C(F)(F)F)cc21` (stereo not shown) [Compound C14], for which the mortality at 500 ppm in series [1], in series [2] and in series [5] was 100% each time. Besides, in series [3], the “Toxicity determination Bombyx mori L. Mortality (%)” value stood at 10%. In series [4], the “Toxicity determination Apis cernan Mortality (%)” value was determined as 10%. Further, the mortality at 100 ppm is 30% in series [6] (setting [7]) and 100% in series [6] (setting [8]).
As for `C=CC1(C(F)(F)F)Nc2c([S+]([O-])C(F)(F)F)c(C#N)nn2-c2c(Cl)cc(C(F)(F)F)cc21` (stereo not shown) [Compound C15], the mortality at 500 ppm in series [1] stood at 89%; in series [2], 100%; in series [5], 100%. In addition, the “Toxicity determination Bombyx mori L. Mortality (%)” value in series [3] turned out to be 8%. Moreover, the “Toxicity determination Apis cernan Mortality (%)” value in series [4] is 7%. The mortality at 100 ppm turned out to be 29% in series [6] (setting [7]) and 90% in series [6] (setting [8]).
Turning to `C=CC1(CCl)Nc2c([S+](C)[O-])c(C#N)nn2-c2c(Cl)cc(C(F)(F)F)cc21` (stereo not shown) [Compound C18], the mortality at 500 ppm in series [1] stood at 90%; in series [2], 86%; in series [5], 98%. The “Toxicity determination Bombyx mori L. Mortality (%)” value in series [3] amounted to 6%. Moreover, the “Toxicity determination Apis cernan Mortality (%)” value in series [4] is reported as 5%. Further, the mortality at 100 ppm in series [6] (setting [7]) was found to be 20%; in series [6] (setting [8]) it was 70%.
Consider `C=CC1(CC#N)Nc2c([S+]([O-])C(F)(F)F)c(C#N)nn2-c2c(Cl)cc(C(F)(F)F)cc21` (stereo not shown) [Compound C20], for which the mortality at 500 ppm in series [1], in series [2] and in series [5] was 100% throughout. For the same molecule, the “Toxicity determination Bombyx mori L. Mortality (%)” value in series [3] amounted to 8%. The “Toxicity determination Apis cernan Mortality (%)” value in series [4] stood at 10%. For the same molecule, the mortality at 100 ppm in series [6] (setting [7]) is 28%; in series [6] (setting [8]), 99%.
Take `N#CCC1(CO)Nc2c([S+]([O-])C(F)(F)F)c(C#N)nn2-c2c(Cl)cc(C(F)(F)F)cc21` (stereo not shown) [Compound C24]: the mortality at 500 ppm in series [1], in series [2] and in series [5] was 100% in each case. Besides, the “Toxicity determination Bombyx mori L. Mortality (%)” value in series [3] is 11%. Also, in series [4], the “Toxicity determination Apis cernan Mortality (%)” value is 10%. Also, the mortality at 100 ppm in series [6] (setting [7]) was determined as 36%; in series [6] (setting [8]) it was 100%.
On to `CC[S+]([O-])c1c(C#N)nn2c1NC(CO)(CC#N)c1cc(C(F)(F)F)cc(Cl)c1-2` (stereo not shown) [Compound C25], for which the mortality at 500 ppm in series [1] came out at 92%; in series [2] it was 97%; in series [5], 86%. In addition, the “Toxicity determination Bombyx mori L. Mortality (%)” value in series [3] is reported as 3%. For the same molecule, the “Toxicity determination Apis cernan Mortality (%)” value in series [4] is 0%. The mortality at 100 ppm was 25% in series [6] (setting [7]) and 71% in series [6] (setting [8]).
Take `C[S+]([O-])c1c(C#N)nn2c1NC(CO)(CC#N)c1cc(C(F)(F)F)cc(Cl)c1-2` (stereo not shown) [Compound C26]: the figures for the mortality at 500 ppm in series [1], in series [2] and in series [5] were 89%, 90% and 100%, respectively. Moreover, the “Toxicity determination Bombyx mori L. Mortality (%)” value in series [3] came to 4%. In addition, the “Toxicity determination Apis cernan Mortality (%)” value in series [4] is 4%. Further, the figures for the mortality at 100 ppm in series [6] (setting [7]) and in series [6] (setting [8]) were 20% and 80%, respectively.
Turning to `CN(C)CC1(CC#N)Nc2c([S+]([O-])C(F)(F)F)c(C#N)nn2-c2c(Cl)cc(C(F)(F)F)cc21` (stereo not shown) [Compound C29], the mortality at 500 ppm in series [1] stood at 100%; in series [2], 93%; in series [5], 100%. In addition, the “Toxicity determination Bombyx mori L. Mortality (%)” value in series [3] came to 0%. Further, the “Toxicity determination Apis cernan Mortality (%)” value in series [4] is listed as 4%. Also, the mortality at 100 ppm in series [6] (setting [7]) stood at 30%; in series [6] (setting [8]), 100%.
Consider `N#CCC1(C(=O)O)Nc2c([S+]([O-])C(F)(F)F)c(C#N)nn2-c2c(Cl)cc(C(F)(F)F)cc21` (stereo not shown) [Compound C30], for which the results for the mortality at 500 ppm in series [1], in series [2] and in series [5] were 100%, 90% and 92%, respectively. Moreover, the “Toxicity determination Bombyx mori L. Mortality (%)” value in series [3] stood at 0%. Moreover, the “Toxicity determination Apis cernan Mortality (%)” value in series [4] amounted to 0%. For the same molecule, the mortality at 100 ppm in series [6] (setting [7]) came out at 24%; in series [6] (setting [8]), 100%.
